Experiments:
Type in all cases: cell-based, human
[1] = system: PC-3 cells; assay: Cell growth of PC-3 cells (cell counting); settings: three days; for cell growth in the presence of cell cycle inhibitor alone: roscovitine 10 or 100 nM, butyrate 10 or 100 μM, sulforaphane 1 or 10 nM
Experimental: (§1) The PC-3 and DU-145 cells (the cell number of 1×10^5/in 1 ml of a culture fluid per hole using a 24-hole plate) were cultured in a DMEM culture fluid (containing 10% of FBS, 1% of P/S, and 1% of fungizone) containing the DHMBA (1 and 10 μM) under 5% of CO2, at 37° C., for one, two, three, four, and six days. […] After the culture, 0.1 ml of 0.05% trypsin-EDTA solution obtained by dissolving the cells adhering to the bottom surface of the culture dish in PBS (Thermo Fisher Scientific, Waltham, MA, USA) not containing Ca^2+/Mg^2+ was added, incubation was performed at 37° C. for two minutes to release the adhering cells, and 0.9 ml of the DMEM culture fluid containing 10% of FBS and 1% of P/S was added to stop the reaction. The cell number in the cell suspension was counted by the method described in the item of “Measurement of Cell Number.”
(§2) After the culture of the cells, 0.1 ml of 0.05% trypsin-EDTA solution obtained by dissolving the cells adhering to the bottom surface of the culture dish in PBS (Thermo Fisher Scientific, Waltham, MA, USA) not containing Ca^2+/Mg^2+ was added, incubation was performed at 37° C. for two minutes to release the adhering cells, and 0.9 ml of the DMEM culture fluid containing 10% of FBS and 1% of P/S was added to stop the reaction. The visible cells were counted by the Olympus MTV-3 microscope using a hemocytometer (Sigma-Aldrich).
FIG. 1(C) is a diagram in which the PC-3 cells (1×10^5 cells/per well of a 24-well plate) were cultured under 5% of CO2, at 37° C., for one to six days in a DMEM culture fluid (containing 10% of FBS, 1% of P/S, and 1% of fungizone) containing the DHMBA (10 μM).
(§3) In FIGS. 1(D) and 1(E), the PC-3 cells (1×10^5 cells/per well of a 24-well plate) were cultured under 5% of CO2, at 37° C., for three (FIG. 1D) and six (FIG. 1E) days in a DMEM culture fluid (containing 10% of FBS, 1% of P/S, and 1% of fungizone) containing the DHMBA (0.01, 0.1, 1, 10, 100, and 1000 μM). After the culture, the cells adhered to the bottom surface of the dish were removed and counted. […] 1-way ANOVA, Tukey-Kramer post-test.
FIGS. 3(A) and 3(B) are diagrams in which the PC-3 cells (1×10^5 cells/ml/per well of a 24-well plate) were cultured under 5% of CO2, at 37° C., for three days in a DMEM culture fluid (containing 10% of FBS, 1% of P/S, and 1% of fungizone) containing the DHMBA (10 μM) containing cell cycle inhibitors, roscovitine (10 and 100 nM), butyrate (10 and 100 μM), and sulforaphane (1 and 10 nM).
After the culture, the cells adhered to the dish were removed and counted. […] 1-way ANOVA, Tukey-Kramer post-test.
In the drawing, the PC-3 cells (1×10^5/in 1 ml of a culture fluid per hole using a 24-hole plate) were cultured under 5% of CO2, at 37° C., for three days in a DMEM culture fluid (containing 10% of FBS, 1% of P/S, and 1% of fungizone) in the presence of the DHMBA (10 μM) and an aryl hydrocarbon receptor inhibitor CH223191 (1, 10, or 25 μM) to examine the action on cell growth.

[2] = system: PC-3 cells; assay: Cell death of sub-confluent PC-3 cells (adherent cell counting)
Experimental: The PC-3 and DU-145 cells (1×10^5/in 1 ml of a culture fluid per hole using a 24-hole plate) were cultured in a DMEM culture fluid (containing 10% of FBS, 1% of P/S, and 1% of fungizone) under 5% of CO2, at 37° C., for three days, and when the cells reached sub-confluence, the culture fluid was exchanged for the one containing the DHMBA (0.01, 0.1, 1, 10, 100, or 1000 μM), and the cells were cultured for 24 and 48 hours. After the culture, the cells adhering to the bottom surface of the dish were removed and counted. In another experiment, after the culture for three days, when the cells reached sub-confluence, the culture fluid was exchanged for a culture fluid containing the DHMBA (1 or 10 μM) and a caspase-3 inhibitor (10 μM), and the cells were counted after the culture for 48 hours. Further, after the culture for three days, when the cells reached sub-confluence, the culture fluid was exchanged for a culture fluid obtained by adding gemcitabine (0.1, 1, 10, 50 or 100 nM) or CH223191 (1, 10, and 25 μM) to a DMEM culture fluid containing the DHMBA (1 or 10 μM) or not containing the DHMBA, and the cells were counted after the culture for 48 hours.
as §2
(§4) In the drawing, the PC-3 (FIGS. 5(A) and 5(B)) and DU-145 (FIGS. 5(D) and 5(E)) cells (1×10^5/in 1 ml of a culture fluid per hole using a 24-hole plate) were cultured under 5% of CO2, at 37° C., for three days in a DMEM culture fluid (containing 10% of FBS, 1% of P/S, and 1% of fungizone), and when the cells reached sub-confluence, the culture fluid was exchanged for the one containing the DHMBA (0.01, 0.1, 1, 10, 100, or 1000 μM), and the cells were cultured for 24 and 48 hours. In the drawing, after the culture, the cells adhering to the dish were counted.
In another experiment, after the culture for three days, when the cells reached sub-confluence, for the PC-3 (FIG. 5(C)) or DU-145 (FIG. 5(F)) cells, the culture fluid was exchanged for a culture fluid containing the DHMBA (1 or 10 μM) and a caspase-3 inhibitor (10 μM), and the cells were counted after the culture for 48 hours. Further, after the culture for three days, when the cells reached sub-confluence, the culture fluid was exchanged for a culture fluid obtained by adding gemcitabine (0.1, 1, 10, 50 or 100 nM) or CH223191 (1, 10, and 25 μM) to a DMEM culture fluid containing the DHMBA (1 or 10 μM) or not containing the DHMBA, and the cells were counted after the culture for 48 hours. After the culture, the cells adhered to the dish were removed and counted. Each piece of data is shown with a mean value and a standard deviation of values obtained from eight wells of the different cultured cells. *p<0.001, comparison with the control (gray bar). 1-way ANOVA, Tukey-Kramer post-test.
as §4, with “The” for “In the drawing, the”, “PC-3” for “PC-3 (FIGS. 5(A) and 5(B)) and DU-145 (FIGS. 5(D) and 5(E))”, “gemcitabine (1,” for “DHMBA (0.01, 0.1, 1,”, “10, 50,” for “10,”, “250 nM),” for “1000 μM),”, “for” for “for 24 and”
After the culture for three days, when the cells reached sub-confluence, the culture fluid was exchanged for a culture fluid containing the DHMBA (1 or 10 μM) and gemcitabine (1, 10, or 100 nM), and the cells were counted after the culture for 48 hours. […]

[3] = system: DU-145 cells; assay: Cell growth of DU-145 cells (cell counting); settings: three days, roscovitine 10 or 100 nM, butyrate 10 or 100 μM, sulforaphane 1 or 10 nM
Experimental: as §1, §2
FIG. 2(C) is a diagram in which the DU-145 cells (1×10^5 cells/per well of a 24-well plate) were cultured under 5% of CO2, at 37° C., for one to six days in a DMEM culture fluid (containing 10% of FBS, 1% of P/S, and 1% of fungizone) containing the DHMBA (10 μM).
as §3, with “2(D)” for “1(D)”, “2(E),” for “1(E),”, “DU-145” for “PC-3”, “2D)” for “1D)”, “2E)” for “1E)”, “the” for “the bottom surface of the”

SMILES	cell growth in the presence of cell cycle inhibitor alone [1]	cell growth in the presence of cell cycle inhibitor alone [3]	also measured
Cc1ccccc1N=Nc1ccc(NC(=O)c2ccnn2C)c(C)c1 [CH223191, 2-Methyl-2H-pyrazole-3-carboxylic acid (2-methyl-4-o-tolylazo-phenyl)-amide, reference compound]	–	–	action of CH223191 alone on cell growth ([1]; CH223191 1, 10, or 25 μM): no significant effect; cell death induction by CH223191 alone ([2]; sub-confluent, CH223191 1, 10, or 25 μM, 48 hours): did not cause the cell death induction
COc1cccc(-c2cc(=O)c3ccccc3o2)c1N [PD98059, reference compound]	–	–	cell growth in the presence of intracellular signaling inhibitor alone ([1]; wortmannin 10 or 100 nM, PD98059 1 or 10 μM, staurosporine 1 or 10 nM): inhibited
CC[C@H](CO)Nc1nc(NCc2ccccc2)c2ncn(C(C)C)c2n1 [roscovitine, reference compound]	inhibited	inhibited	–
C[S+]([O-])CCCCN=C=S (centres unmarked) [sulforaphane, reference compound]	inhibited	inhibited	–
Nc1ccn([C@@H]2O[C@H](CO)[C@@H](O)C2(F)F)c(=O)n1 [gemcitabine, reference compound]	–	–	cell death by gemcitabine alone ([2]; gemcitabine 1, 10, 50, 100, and 250 nM, three days as printed): significant cell deaths

— patent US20240350430A1, “GROWTH INHIBITOR OF METASTATIC HUMAN PROSTATE CANCER CELLS” (Watanabe Oyster Laboratory Co., Ltd., priority 2021, published 2024)
